Entries after “also recorded” stand apart in the source; their conditions may differ. Values belong to the molecule of their own block, whether it stands above or below them.
Experiments:
[1] = 4-Mu-Chitotrioside assay, activity of recombinant AMCase proteins; assay type: biochemical; conditions: 4-Mu-Chitotrioside assay (soluble substrate)
Description: Activity Assays Used: Chitinase activity was assayed using two different but commonly used assays. One assay (4-Mu-Chitotrioside assay) utilized 4-methylumbelliferyl-β-D-N,N′,N″-triacetylchitotrise as a substrate (see, e.g., Hollak et al., 1994, J. Clin. Invest. 93: 1288-92). The other (chitin-azure assay) utilized chitin azure as a substrate (see, e.g., Thompson et al., (2001) Appl Environ Microbiol. 67:4001-4008).

[2] = target: T1, mouse AMCase / mouse galectin-3 (Mus musculus, UniProt Q91XA9); test: C/CLP-Galectin Interaction ELISA; assay type: binding; conditions: data not shown
T1 construct: 6xHis (C); made in house; host or cells: HEK293 (FreeStyle 293), secreted and purified on nickel NTA
Description: (§1) C/CLP-Galectin Interaction ELISA: Galectin is immobilized on a microtiter plate in DPBS over night at 2-8° C. The plates are then washed with DPBS, 0.1% Tween 20 and blocked for 1 hour at room temperature. Serial dilutions of biotin labeled AMCase are added to each well and incubated for ˜1 hour at room temperature followed by HRP labeled streptavidin. Horseradish peroxydase activity is detected with TMB substrate (KPL, MD) and the reaction is quenched with 1% H2SO4. The absorbance is read at 450 nm.

[3] = target: T2, mouse AMCase / mouse galectin-4 (Mus musculus, UniProt Q91XA9); test: C/CLP-Galectin Interaction ELISA; assay type: binding; conditions: data not shown
T2 construct: 6xHis (C); made in house; host or cells: HEK293 (FreeStyle 293), secreted and purified on nickel NTA
Description: as §1

Jurkat cells = test: Galectin Induced Calcium Flux; assay type: cell-based, human; conditions: for inhibition of galectin-3 induced calcium flux: 200 μg/ml, versus 100 μg/ml; for calcium flux in Jurkat cells: galectin-3 40 μg/ml
Description: Galectin Induced Calcium Flux: Jurkat cells were labeled with Fluo-4AM and Fura-Red. galectin-3 (40 μg/ml) was added to the cells and Ca flux was analyzed as FL1/FL3. Analysis was performed for 5 minutes. For interaction analysis gal-3 (40μg/ml) is pre-incubated with huAMCase (100-200 μg/ml) or huChTrase (100-200 μg/ml) for 15 mins at RT prior to addition.

peritoneal macrophages = test: Cytokine induction assay with recombinant mYKL-40; assay type: cell-based, mouse; conditions: for secretion of IL-6 / secretion of KC: increasing amounts of recombinant mYKL-40
Description: Isolation of peritoneal macrophaaes: 4-6 week old Balb/c mice were injected i.p. with 1 ml of fluid thioglyclollate medium (Becton, Dickinson and Company, Sparks, Md.). 4 days later peritoneal macrophages were harvested by lavage (ice-cold PBS w/o Ca, Mg, 10 ml/mouse). Cells were washed with PBS twice and resuspended in 10% FBS/RPMI 1640 medium (Glutamax, 25 mM Hepes, 1×antibiotic-antimycotic (Invitrogen, Grand Island, N.Y.) at 2.5×10^6 cells/ml. Cells were plated in 96 well TC plates (100 μl/well). After overnight incubation at 37° C. nonadherent cells were removed by washing with serum free RPMI 1640. 100 μl/well of 10% FBS/RPMI 1640 were added and cells were cultured for 72 hr.
Cytokine Induction Assays: isolated peritoneal macrophages (described above) were washed with PBS, proteins and antibodies, concentrated supernatants, were added in 2% FBS/RPMI 1640, 100 μl/well. After 18 hr incubation supernatants were collected and cytokine concentrations were measured using mouse cytokine multiplex kit (Upstate, Lake Placid, N.Y.) on Luminex 100.

[4] = target: T3, human AMCase / human galectin 4 (Homo sapiens, UniProt P56470); test: C/CLP-Galectin Interaction ELISA; assay type: binding
T3 construct: 6xHis (C); made in house; host or cells: HEK293 (AMCase)
T3 sequence (P56470 1-323): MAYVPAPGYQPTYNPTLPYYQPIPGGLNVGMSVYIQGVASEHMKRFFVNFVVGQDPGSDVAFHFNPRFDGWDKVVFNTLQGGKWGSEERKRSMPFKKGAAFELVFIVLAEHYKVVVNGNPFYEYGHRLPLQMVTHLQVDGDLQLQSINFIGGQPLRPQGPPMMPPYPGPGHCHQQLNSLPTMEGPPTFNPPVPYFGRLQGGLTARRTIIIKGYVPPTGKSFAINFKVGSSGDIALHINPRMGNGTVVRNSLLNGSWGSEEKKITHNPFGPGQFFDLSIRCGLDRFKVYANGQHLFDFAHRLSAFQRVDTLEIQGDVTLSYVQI
Description: as §1

Jurkat T cells = test: Galectin-3 induced apoptosis in Jurkat T cells; assay type: cell-based, human
galectin 1 = galectin 1 (Homo sapiens, UniProt P09382); test: C/CLP-Galectin Interaction ELISA; assay type: binding
Description: as §1

galectin 2 = target: T4, galectin 2 (Homo sapiens, UniProt P05162); test: C/CLP-Galectin Interaction ELISA; assay type: binding
T4 sequence (P05162 1-132): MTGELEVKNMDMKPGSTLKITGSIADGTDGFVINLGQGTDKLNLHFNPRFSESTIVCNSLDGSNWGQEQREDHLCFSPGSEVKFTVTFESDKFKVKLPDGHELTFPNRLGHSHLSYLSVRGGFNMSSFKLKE
Description: as §1

galectin 7 = galectin 7 (Homo sapiens, UniProt P47929); test: C/CLP-Galectin Interaction ELISA; assay type: binding
Description: as §1

[5] = system: human AMCase / human galectin 3; test: C/CLP-Galectin Interaction ELISA; assay type: binding; conditions: listed as full length human AMCase
Description: as §1

galectin 8 = target: T5, galectin 8 (Homo sapiens, UniProt O00214); test: C/CLP-Galectin Interaction ELISA; assay type: binding
T5 sequence (O00214 1-317): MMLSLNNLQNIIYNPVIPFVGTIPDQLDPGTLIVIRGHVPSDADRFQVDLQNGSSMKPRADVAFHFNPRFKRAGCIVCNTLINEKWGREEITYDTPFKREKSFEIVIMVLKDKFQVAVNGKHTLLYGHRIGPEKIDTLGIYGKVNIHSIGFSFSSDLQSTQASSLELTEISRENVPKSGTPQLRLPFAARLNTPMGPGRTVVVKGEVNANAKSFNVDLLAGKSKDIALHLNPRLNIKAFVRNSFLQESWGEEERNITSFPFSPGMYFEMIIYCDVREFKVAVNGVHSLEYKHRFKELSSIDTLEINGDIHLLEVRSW
Description: as §1

[6] = system: memory T cells isolated from human blood; test: Galectin-3 induced apoptosis in memory T cells; assay type: cell-based
[7] = listed as recombinant mouseYKL-40

galectin 1, sequence (P09382 2-135 limits assumed): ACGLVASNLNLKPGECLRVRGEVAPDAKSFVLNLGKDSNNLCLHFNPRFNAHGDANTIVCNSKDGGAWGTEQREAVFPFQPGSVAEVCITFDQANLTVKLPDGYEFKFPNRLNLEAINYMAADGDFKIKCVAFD
galectin 7, sequence (P47929 whole entry): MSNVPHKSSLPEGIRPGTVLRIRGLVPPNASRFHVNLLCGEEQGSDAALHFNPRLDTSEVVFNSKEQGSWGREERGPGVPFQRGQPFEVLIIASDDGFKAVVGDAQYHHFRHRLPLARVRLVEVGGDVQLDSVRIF
T2 sequence (Q91XA9 22-473): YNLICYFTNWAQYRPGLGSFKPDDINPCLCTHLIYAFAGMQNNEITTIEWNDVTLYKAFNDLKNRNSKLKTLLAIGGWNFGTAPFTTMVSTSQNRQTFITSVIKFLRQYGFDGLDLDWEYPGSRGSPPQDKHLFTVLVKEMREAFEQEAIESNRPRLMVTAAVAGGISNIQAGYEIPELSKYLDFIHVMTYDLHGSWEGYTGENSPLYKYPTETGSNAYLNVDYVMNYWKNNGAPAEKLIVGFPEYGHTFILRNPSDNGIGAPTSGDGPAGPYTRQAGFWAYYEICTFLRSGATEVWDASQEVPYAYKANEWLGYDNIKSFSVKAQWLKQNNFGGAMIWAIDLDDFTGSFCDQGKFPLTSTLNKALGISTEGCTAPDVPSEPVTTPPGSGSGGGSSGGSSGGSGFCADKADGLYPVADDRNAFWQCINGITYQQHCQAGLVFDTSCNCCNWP
T1 sequence (Q91XA9 22-473): as above

activity of recombinant AMCase proteins [1]: high activity
activity of recombinant AMCase proteins ([1]; listed as truncated form): active
Molecule: AMCase-TR: recombinant AMCase protein lacking the CBD

Molecule: D136A: AMCase full length protein containing the D136A mutation [Antibody D136A]
activity of recombinant AMCase proteins [1]: no activity; also recorded: completely abolished activity

binding of mouse AMCase to mouse galectin-3 [2]: bind
binding of mouse AMCase to mouse galectin-4 [3]: bind
Molecule: mouse AMCase: recombinant mouse acidic mammalian chitinase

Molecule: Cht: recombinant human chitotriosidase
inhibition of galectin-3 mediated calcium flux (Jurkat cells): inhibited
inhibition of galectin-3 induced calcium flux (Jurkat cells): not

Molecule: mYKL-40: recombinant mouse YKL-40/BRP-39
induction of IL-10 (peritoneal macrophages): induced
induction of RANTES (peritoneal macrophages): induced
induction of TNF-α (peritoneal macrophages): induced
secretion of IL-6 (peritoneal macrophages): increase
secretion of KC (peritoneal macrophages): increase
secretion of IL-6 (peritoneal macrophages; [7]): dose sensitive increase
secretion of KC (peritoneal macrophages; [7]): dose sensitive increase

inhibition of binding of Human AMCase to Galectin 4 [4]: inhibited
Molecule: OC[C@H]1O[C@@H](O[C@H]2[C@H](O)[C@@H](O)C(O)O[C@@H]2CO)[C@H](O)[C@@H](O)[C@H]1O (some centres unmarked) [lactose, reference compound]
effect on galectin-3 induced apoptosis of Jurkat T cells (Jurkat T cells; addition of lactose): abolished; also recorded: reduced the levels of apoptosis seen to nearly background levels

activity of recombinant AMCase proteins [1]: high activity; also recorded: active
Molecule: full length AMCase: recombinant full length AMCase protein

binding of AMCase to galectin 1 (galectin 1): not
binding of AMCase to galectin 2 (galectin 2): not
binding of AMCase to galectin 7 (galectin 7): not
binding of AMCase to galectin 4 ([4]; listed as full length human AMCase): confirmed; also recorded: binds
binding of AMCase to galectin 3 [5]: confirmed; also recorded: binds
binding of AMCase to galectin 8 (galectin 8): not
Molecule: AMCase: recombinant human acidic mammalian chitinase
inhibition of galectin-3 mediated calcium flux (Jurkat cells): inhibited
inhibition of galectin-3 induced calcium flux (Jurkat cells): further inhibition
inhibition of galectin-3 induced apoptosis of memory T cells ([6]; 10 μg galectin-3, 50 μg or more of AMCase): inhibited; also recorded: significant inhibition

Molecule: rhuGal-3: recombinant human Galectin 3
calcium flux in Jurkat cells (Jurkat cells; listed as Galectin): results in calcium flux
calcium flux in Jurkat cells (Jurkat cells; listed as Galectin-3): mediate calcium flux
apoptosis of memory T cells ([6]; galectin-3 alone): induced apoptosis
apoptosis of Jurkat T cells (Jurkat T cells; 1 μg rhuGal-3): Little to no apoptosis
apoptosis of Jurkat T cells (Jurkat T cells; 5, 10 and 30 μg rhuGal-3): increased apoptosis
apoptosis of Jurkat T cells (Jurkat T cells; 5, 10 and 30 μg rhuGal-3, listed as Galectin-3): induce apoptosis

From US20070071746A1, “C/CLP antagonists and methods of use thereof” (MEDIMMUNE, INC., priority 2005, published 2007)
